Assay results reported in patent publication US6440903B1, “Substituted 2,4-diamino-1,3,5-triazines as herbicides” (Bayer Aktiengesellschaft, priority 1996, dated 2002).

Assays:
Type in all cases: in vivo
[1] = tested on: Amaranthus; assay: Post-emergence test; settings: greenhouse, scored after three weeks
Description: (§1) Post-emergence Test Solvent: 5 parts by weight of acetone Emulsifier: 1 part by weight of alkylaryl polyglycol ether To produce a suitable preparation of active compound, 1 part by weight of active compound is mixed with the stated amount of solvent, the stated amount of emulsifier is added and the concentrate is diluted with water to the desired concentration. Test plants which have a height of 5-15 cm are sprayed with the preparation of active compound such that the particular amounts of active compounds desired are applied per unit area. The concentration of the spray liquor is chosen so that the particular amounts of active compound desired are applied in 1000 l of water/ha. After three weeks, the degree of damage to the plants is scored visually in % damage in comparison to the untreated control. The Figures Denote: 0%=no effect (like untreated control) 100%=total destruction

[2] = tested on: Chenopodium; assay: Post-emergence test; settings: greenhouse, scored after three weeks
Description: as §1

[3] = tested on: Polygonum; assay: Post-emergence test; settings: greenhouse, scored after three weeks
Description: as §1

[4] = tested on: Setaria; assay: Post-emergence test; settings: greenhouse, scored after three weeks; for pest or weed control at 250 g/ha / pest or weed control at 500 g/ha: Setaria, 504 h, read-out: % damage, Setaria
Description: as §1

[5] = tested on: Viola; assay: Post-emergence test; settings: greenhouse, scored after three weeks
Description: as §1

[6] = tested on: Wheat; assay: Post-emergence test; settings: greenhouse, scored after three weeks; for % damage, Wheat / plant injury at 250 g/ha: 250 g of ai./ha; for plant injury at 500 g/ha: 500 g of ai./ha
Description: as §1

[7] = tested on: weeds; assay: Post-emergence test (summary in text); settings: result in words
Description: Solvent: 5 parts by weight of acetone
Emulsifier: 1 part by weight of alkylaryl polyglycol ether
To produce a suitable preparation of active compound, 1 part by weight of active compound is mixed with the stated amount of solvent, the stated amount of emulsifier is added and the concentrate is diluted with water to the desired concentration.
Test plants which have a height of 5-15 cm are sprayed with the preparation of active compound such that the particular amounts of active compounds desired are applied per unit area. The concentration of the spray liquor is chosen so that the particular amounts of active compound desired are applied in 1000 l of water/ha.
After three weeks, the degree of damage to the plants is scored visually in % damage in comparison to the untreated control.
0%=no effect (like untreated control)

[8] = Amaranthus, 504 h, 250 g of ai./ha, read-out: % damage, Amaranthus
[9] = Chenopodium, 504 h, 250 g of ai./ha, read-out: % damage, Chenopodium
[10] = Polygonum, 504 h, 250 g of ai./ha, read-out: % damage, Polygonum
[11] = 504 h, 250 g of ai./ha, read-out: % damage, Viola
[12] = Triticum aestivum, 504 h, read-out: % damage, Wheat
[13] = Amaranthus, 504 h, 500 g of ai./ha, read-out: % damage, Amaranthus
[14] = Chenopodium, 504 h, 500 g of ai./ha, read-out: % damage, Chenopodium
[15] = Polygonum, 504 h, 500 g of ai./ha, read-out: % damage, Polygonum
[16] = 504 h, 500 g of ai./ha, read-out: % damage, Viola

CCC(Nc1nc(N)nc(C(F)(F)F)n1)c1ccc(Cl)cc1 (stereo not shown) [drawing 137]
pest or weed control at 250 g/ha [1, 8]: 100%
pest or weed control at 250 g/ha [2, 9]: 100%
pest or weed control at 250 g/ha [3, 10]: 100%
pest or weed control at 250 g/ha ([4]; 250 g of ai./ha): 95%
pest or weed control at 250 g/ha [5, 11]: 100%
% damage, Wheat [6]: 0%

CC(=O)Nc1nc(NC(C)c2ccc(Cl)cc2)nc(C(C)Cl)n1 (stereo not shown) [drawing 122]
pest or weed control at 250 g/ha [1, 8]: 100%
pest or weed control at 250 g/ha [2, 9]: 100%
pest or weed control at 250 g/ha [3, 10]: 100%
pest or weed control at 250 g/ha ([4]; 250 g of ai./ha): 80%
pest or weed control at 250 g/ha [5, 11]: 95%
plant injury at 250 g/ha [6, 12]: 10%

CC(Nc1nc(N)nc(C(F)C(F)(F)F)n1)c1ccc(Cl)cc1 (stereo not shown) [drawing 124]
% damage, Amaranthus ([1]; 250 g of ai./ha): 100%
% damage, Chenopodium ([2]; 250 g of ai./ha): 100%
% damage, Polygonum ([3]; 250 g of ai./ha): 95%
% damage, Setaria ([4]; 250 g of ai./ha): 90%
% damage, Viola ([5]; 250 g of ai./ha): 95%
% damage, Wheat [6]: 10%

CCc1nc(N)nc(NC(C)c2ccc(Cl)cc2)n1 (stereo not shown) [drawing 127]
% damage, Amaranthus ([1]; 500 g of ai./ha): 100%
% damage, Chenopodium ([2]; 500 g of ai./ha): 100%
% damage, Polygonum ([3]; 500 g of ai./ha): 100%
% damage, Setaria ([4]; 500 g of ai./ha): 100%
% damage, Viola ([5]; 500 g of ai./ha): 100%

CC(=O)Nc1nc(NC(C)c2ccc(Cl)cc2)nc(C(Cl)Cl)n1 (stereo not shown) [drawing 133]
pest or weed control at 500 g/ha [1, 13]: 100%
pest or weed control at 500 g/ha [2, 14]: 100%
pest or weed control at 500 g/ha [3, 15]: 100%
pest or weed control at 500 g/ha ([4]; 500 g of ai./ha): 80%
pest or weed control at 500 g/ha [5, 16]: 100%
plant injury at 500 g/ha [6, 12]: 10%

CC(Nc1nc(N)nc(C(F)(F)F)n1)c1ccc(Cl)cc1 (stereo not shown) [Example 21]
activity against weeds [7]: strong activity

CC(Cl)c1nc(N)nc(NC(C)c2ccc(Cl)cc2)n1 (stereo not shown) [drawing 120]
pest or weed control at 250 g/ha [1, 8]: 100%
pest or weed control at 250 g/ha [2, 9]: 100%
pest or weed control at 250 g/ha [3, 10]: 100%
pest or weed control at 250 g/ha ([4]; 250 g of ai./ha): 80%
pest or weed control at 250 g/ha [5, 11]: 100%
% damage, Wheat [6]: 0%

CSc1ccc(C(C)Nc2nc(N)nc(C(C)(Cl)Cl)n2)cc1 (stereo not shown) [drawing 114]
pest or weed control at 500 g/ha [1, 13]: 100%
pest or weed control at 500 g/ha [2, 14]: 100%
pest or weed control at 500 g/ha [3, 15]: 100%
pest or weed control at 500 g/ha ([4]; 500 g of ai./ha): 80%
pest or weed control at 500 g/ha [5, 16]: 100%
plant injury at 500 g/ha [6, 12]: 0%

CCC(Nc1nc(N)nc(C(F)(F)F)n1)c1ccc(Cl)cc1 (stereo not shown) [Example 86]
activity against weeds [7]: strong activity

CCc1nc(N)nc(NC(C)c2ccc(Cl)cc2)n1 (stereo not shown) [Example 153]
activity against weeds [7]: strong activity

CCC(Nc1nc(N)nc(C(F)(F)F)n1)c1ccc(Cl)cc1 (stereo not shown) [Example 87]
activity against weeds [7]: strong activity

COCc1nc(N)nc(NC(C)c2ccc(Cl)cc2)n1 (stereo not shown) [drawing 130]
% damage, Amaranthus ([1]; 250 g of ai./ha): 100%
% damage, Chenopodium ([2]; 250 g of ai./ha): 100%
% damage, Polygonum ([3]; 250 g of ai./ha): 100%
% damage, Viola ([5]; 250 g of ai./ha): 100%
% damage, Wheat [6]: 10%

CCC(Nc1nc(N)nc(C(F)(F)F)n1)c1ccc(Cl)cc1 (stereo not shown) [drawing 139]
pest or weed control at 1000 g/ha ([1]; Amaranthus, 504 h, 1000 g of ai./ha, read-out: % damage, Amaranthus): 100%
pest or weed control at 1000 g/ha ([2]; Chenopodium, 504 h, 1000 g of ai./ha, read-out: % damage, Chenopodium): 100%
pest or weed control at 1000 g/ha ([3]; Polygonum, 504 h, 1000 g of ai./ha, read-out: % damage, Polygonum): 100%
pest or weed control at 1000 g/ha ([5]; 504 h, 1000 g of ai./ha, read-out: % damage, Viola): 100%
plant injury at 1000 g/ha ([6]; Triticum aestivum, 504 h, 1000 g of ai./ha, read-out: % damage, Wheat): 10%

CC(Nc1nc(N)nc(C(F)(F)F)n1)c1ccc(Cl)cc1 (stereo not shown) [Example 15]
activity against weeds [7]: strong activity

COCc1nc(N)nc(NC(C)c2ccc(Cl)cc2)n1 (stereo not shown) [Example 170]
activity against weeds [7]: strong activity

CC(Nc1nc(N)nc(C(C)(Cl)Cl)n1)c1ccc(Cl)cc1 (stereo not shown) [Example 97]
activity against weeds [7]: strong activity

CC(Cl)c1nc(N)nc(NC(C)c2ccc(Cl)cc2)n1 (stereo not shown) [Example 96]
activity against weeds [7]: strong activity

COc1ccc(C(C)Nc2nc(N)nc(C(C)F)n2)cc1 (stereo not shown) [drawing 136]
pest or weed control at 250 g/ha [1, 8]: 100%
pest or weed control at 250 g/ha [2, 9]: 100%
pest or weed control at 250 g/ha [3, 10]: 100%
pest or weed control at 250 g/ha [5, 11]: 95%
plant injury at 250 g/ha [6, 12]: 10%
